Assay results from patent US7951548B2, “IL-13 production inhibitor” (Takeda Pharmaceutical Company Limited, priority 2005, dated 2011).

Target: T1, GPR34 (Homo sapiens, UniProt Q9UPC5)
T1 construct: expressed in transfected cells
Assay: MAPK activation: phosphorylation of ERK1/2 in human GPR34-expressed CHO cells (western blotting)
Type: cell-based
Settings: human GPR34-expressed CHO cells
Procedure: The cells were prepared as described below. Human GPR34-expressed CHO cells were scraped off with 0.05% trypsin-EDTA (GIBCO) and suspended in a medium (MEM-α (GIBCO), supplemented with 10% FBS (GIBCO) and penicillin/streptomycin (BIOWHITTAKER)). After centrifugation, the cells precipitated were suspended in the medium in 2×10^5 cells/ml and a 1 mL aliquot was plated on a 35 mm cell culture dish. After incubation overnight in a CO2 incubator, the medium was aspirated and washed in PBS. Then 1 mL of serum-free medium (MEM-α (GIBCO), supplemented with penicillin/streptomycin (BIOWHITTAKER)) and incubation was performed in a CO2 incubator. Pertussis toxin (hereinafter PTX) was added in a final concentration of 0.1 μg/mL 20 hours before the assay.
The cells were activated as follows. The medium was aspirated and washed in PBS. Thereafter, 500 μL of assay buffer (HBSS (GIBCO), 10 mM HEPES (Dojin Chemical Laboratory)) was added to perform preincubation for 15 minutes at 37° C. The lysoPS solution and […] of PECGF ([…] cell growth factor) solution as a positive control were added. After the mixture was incubated at 37° C., the reaction was terminated by quenching. The assay buffer was aspirated and washed in PBS. Then, 1×SDS sample buffer/DTT was added to the cells to recover the cells. After ultrasonication for 15 seconds, heating at 95° C. for 5 minutes was followed by quenching.
Detection by SDS-PAGE and western blotting were performed as follows. After separation using 10% Bis-Tris gel (Invitrogen), the gel was transferred to Immuno-Blot PVDF Membrane (Bio-Rad). The membrane was blocked with Block Ace (Dai-Nippon Pharmaceutical) and incubated at room temperature for an hour with a primary antibody (Phospho-p42/p44 MAP Kinase (Thr202/Thr204) Antibody (CST) or p42/p44 MAP Kinase Antibody (CST)) and further incubated at room temperature for an hour using a secondary antibody (Anti-rabbit IgG (CST)). The membrane after the antibody reaction was visualized by chemiluminescence using ECL PLUS (Amersham Biosciences). […]

T1 sequence (Q9UPC5 whole entry): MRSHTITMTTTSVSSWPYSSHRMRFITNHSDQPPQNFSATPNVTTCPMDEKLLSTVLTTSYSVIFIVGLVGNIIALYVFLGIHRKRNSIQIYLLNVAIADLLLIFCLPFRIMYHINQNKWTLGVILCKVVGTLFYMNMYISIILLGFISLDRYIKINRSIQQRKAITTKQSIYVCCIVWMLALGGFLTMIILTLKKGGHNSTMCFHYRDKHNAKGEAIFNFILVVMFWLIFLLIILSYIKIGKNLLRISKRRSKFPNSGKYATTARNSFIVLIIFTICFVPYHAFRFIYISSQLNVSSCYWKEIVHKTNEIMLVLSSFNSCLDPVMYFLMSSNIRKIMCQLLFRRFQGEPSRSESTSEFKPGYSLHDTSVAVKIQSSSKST

## lysophosphatidylserine [lysoPS]
  phosphorylation of ERK1/2 30 minutes after the stimulation: the phosphorylation was noted
  time of maximum response of ERK1/2 phosphorylation after the stimulation: about 5 minutes
